Experiments:
[1] = target: T1, Calcium-activated potassium channel subunit alpha-1 (Homo sapiens, UniProt Q12791); assay: [86Rb+] efflux induced by BKca alpha subunits expressed in HEK293 cells at 10 uM; format: cell-based
[2] = target: T1, Calcium-activated potassium channel subunit alpha-1; assay: BKca channel opening activity in HEK293 cells stably transfected with BKca alpha subunits at 10 uM concentration using a [86Rb+] efflux assay; format: cell-based
[3] = target: T1, Calcium-activated potassium channel subunit alpha-1; assay: BKca opening activity as outward current at 10 uM in HEK293 cells; format: cell-based
Sus scrofa [4] = species: Sus scrofa; assay: In vitro concentration to suppress electrically stimulated contraction in isolated Landrance pig bladder detrusor strips; format: functional
Sus scrofa [5] = species: Sus scrofa; assay: In vitro maximal efficacy in stable twitch response in isolated Landrace pig bladder detrusor strips relative to P-1075

T1 sequence (Q12791 whole entry): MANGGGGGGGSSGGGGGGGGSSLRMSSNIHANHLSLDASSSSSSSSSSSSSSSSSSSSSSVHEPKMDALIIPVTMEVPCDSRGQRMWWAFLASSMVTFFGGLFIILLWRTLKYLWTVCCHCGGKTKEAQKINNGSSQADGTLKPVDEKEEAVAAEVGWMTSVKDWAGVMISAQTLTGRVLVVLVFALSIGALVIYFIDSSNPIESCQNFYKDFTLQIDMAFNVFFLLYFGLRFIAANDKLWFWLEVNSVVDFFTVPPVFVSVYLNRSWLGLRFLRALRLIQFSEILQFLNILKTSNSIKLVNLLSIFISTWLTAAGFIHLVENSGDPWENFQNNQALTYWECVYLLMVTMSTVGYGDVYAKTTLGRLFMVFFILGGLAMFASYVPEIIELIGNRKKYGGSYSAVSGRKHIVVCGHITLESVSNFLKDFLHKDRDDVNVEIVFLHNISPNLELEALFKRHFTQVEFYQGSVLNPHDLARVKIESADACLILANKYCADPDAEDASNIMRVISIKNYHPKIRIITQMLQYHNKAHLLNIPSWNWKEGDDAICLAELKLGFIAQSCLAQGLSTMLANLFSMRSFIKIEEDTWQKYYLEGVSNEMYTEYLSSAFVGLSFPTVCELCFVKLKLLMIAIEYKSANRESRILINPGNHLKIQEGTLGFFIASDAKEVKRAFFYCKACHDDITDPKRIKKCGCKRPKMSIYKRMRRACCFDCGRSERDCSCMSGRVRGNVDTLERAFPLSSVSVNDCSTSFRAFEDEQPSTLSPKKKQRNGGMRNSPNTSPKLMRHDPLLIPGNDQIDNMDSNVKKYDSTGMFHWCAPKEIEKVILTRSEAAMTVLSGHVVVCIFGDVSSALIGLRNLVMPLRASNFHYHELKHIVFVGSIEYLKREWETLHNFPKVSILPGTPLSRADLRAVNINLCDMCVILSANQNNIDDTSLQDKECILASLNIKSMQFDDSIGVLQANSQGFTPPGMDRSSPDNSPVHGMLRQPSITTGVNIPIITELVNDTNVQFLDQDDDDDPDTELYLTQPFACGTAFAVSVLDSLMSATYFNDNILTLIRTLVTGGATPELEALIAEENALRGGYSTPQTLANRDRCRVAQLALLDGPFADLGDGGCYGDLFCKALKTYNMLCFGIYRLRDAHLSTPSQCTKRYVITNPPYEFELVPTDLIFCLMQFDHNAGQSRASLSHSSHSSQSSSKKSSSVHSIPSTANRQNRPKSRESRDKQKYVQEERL

| SMILES | EC50 [1] | Response [2] | Activity [3] | EC50 (Sus scrofa [4]) | Efficacy (Sus scrofa [5]) | Response [3] |
| --- | --- | --- | --- | --- | --- | --- |
| CN(C)CCN(C)c1[nH]c2cccnc2c1C#N | 6.75 µM | 63% | – | – | – | – |
| N#Cc1c(NCc2ccccc2)[nH]c2cccnc12 | Not Active | 0% | – | – | – | – |
| N#Cc1c(N2CCCC2)[nH]c2cccnc12 | 8.12 µM | 58% | – | – | – | – |
| N#Cc1c(N2CCC[C@H]2CO)[nH]c2cccnc12 | Not Active | 0% | – | – | – | – |
| COC(=O)C1CCN(c2[nH]c3cccnc3c2C#N)CC1 | 17 µM | 55% | – | – | – | – |
| N#Cc1c(Nc2ccccc2)[nH]c2cccnc12 | Not Active | 0% | – | – | – | – |
| N#Cc1c(N2CC3CCC(CC3)C2)[nH]c2cccnc12 | 4.43 µM | 74% | – | – | – | – |
| N#Cc1c(N2CCC[C@@H]2CO)[nH]c2cccnc12 | Not Active | 0% | – | – | – | – |
| N#Cc1c(-n2ccnc2)[nH]c2cccnc12 | 5.86 µM | 62% | – | – | – | – |
| CN1CCN(c2[nH]c3cccnc3c2C#N)CC1 | Not Active | 0% | – | – | – | – |
| N#Cc1c(N2CCC[C@H](O)C2)[nH]c2cccnc12 | 5.07 µM | 65% | 108% | 9.26 µM | 31% | – |
| N#Cc1c(N2CC[C@@H](O)C2)[nH]c2cccnc12 | Not Active | 0% | – | – | – | – |
| CCN(CC)c1[nH]c2cccnc2c1C#N | 6.94 µM | 57% | – | – | – | – |
| CN1CCCN(c2[nH]c3cccnc3c2C#N)CC1 | Not Active | 0% | – | – | – | – |
| N#Cc1c(N2CC=CC2)[nH]c2cccnc12 | Not Active | 0% | – | – | – | – |
| N#Cc1c(Cl)[nH]c2cccnc12 | Not Active | 0% | – | – | – | – |
| CCCN(CCO)c1[nH]c2cccnc2c1C#N | Not Active | 0% | – | – | – | – |
| N#Cc1c(N2CCCCCC2)[nH]c2cccnc12 | 3.34 µM | 61% | 105% | 25.9 µM | 63% | – |
| N#Cc1c(O)[nH]c2cccnc12 | 13.4 µM | 65% | – | – | – | – |
| N#Cc1c(N2CCCCC2)[nH]c2cccnc12 | Not Active | 3.02% | – | 24.8 µM | 67% | – |
| N#Cc1c(N2CCC(O)CC2)[nH]c2cccnc12 | 15.1 µM | 28% | – | – | – | – |
| CN(C)c1[nH]c2cccnc2c1C#N | 5.13 µM | 60% | 75.5% | 23.5 µM | 58% | – |
| C[C@@H]1CC[C@@H](C)N1c1[nH]c2cccnc2c1C#N | Not Active | 0% | – | – | – | – |
| N#Cc1c(N2CCOCC2)[nH]c2cccnc12 | 3.86 µM | 62% | – | – | – | – |
| N#Cc1c(N2CCC3CCCCC3C2)[nH]c2cccnc12 (stereo unspecified) | Not Active | 0% | – | – | – | – |
| N#Cc1c(N2CCCCCCC2)[nH]c2cccnc12 | Not Active | 0% | – | – | – | – |
| Cc1c(-c2ccccc2F)[nH]c(N)c1C#N | – | – | – | 63.1 µM | 93% | 21.7% |

Reference: ChEMBL document CHEMBL1136537, “The discovery of a new class of large-conductance Ca2+-activated K+ channel opener targeted for overactive bladder: synthesis and structure-activity relationships of 2-amino-4-azaindoles” (Bioorg Med Chem Lett, 2003)
